{
  "source": "paper PMC6364417",
  "about": "“Kinase inhibitor library screening identifies synergistic drug combinations effective in sensitive and resistant melanoma cells” (Journal of Experimental & Clinical Cancer Research : CR, 2019)",
  "test_in_all_cases": "Kinase inhibitor library screening, PrestoBlue cell viability, 1 or 10 μM, 72 h",
  "key": {"501Mel cells (parental)": {"test_system": "501Mel cells (parental)", "settings": "501Mel Parental", "outline": "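Parental cells and Vemurafenib-resistant (XP) or Dabrafenib-resistant (GP) derivatives were treated with library kinase inhibitors at 1 and 10 μM for 72 h. Viability measured by PrestoBlue and expressed as % of untreated cells, at least in duplicate.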"}, "[1]": {"test_system": "501Mel-GP cells (Dabrafenib-resistant)", "settings": "501Mel GP"}, "[2]": {"test_system": "501Mel-XP cells (Vemurafenib-resistant)", "settings": "501Mel XP"}, "A375 cells (parental)": {"test_system": "A375 cells (parental)", "settings": "A375 Parental"}, "[3]": {"test_system": "A375-GP cells (Dabrafenib-resistant)", "settings": "A375 GP"}, "[4]": {"test_system": "A375-XP cells (Vemurafenib-resistant)", "settings": "A375 XP"}, "IGR37 cells (parental)": {"test_system": "IGR37 cells (parental)", "settings": "IGR37 Parental"}, "[5]": {"test_system": "IGR37-GP cells (Dabrafenib-resistant)", "settings": "IGR37 GP"}, "[6]": {"test_system": "IGR37-XP cells (Vemurafenib-resistant)", "settings": "IGR37 XP"}},
  "data": [
    {"smiles": "COc1cc(Nc2ncc(F)c(Nc3ccc4c(n3)NC(=O)C(C)(C)O4)n2)cc(OC)c1OC.O=S(=O)(O)c1ccccc1", "note": "[R406]", "values": [
      {"measurement": "cell viability (kinase inhibitor library screening)", "setting": "501Mel cells (parental); 1μΜ, in %", "value": 89.8},
      {"measurement": "cell viability (kinase inhibitor library screening)", "setting": "501Mel cells (parental); 10μΜ, in %", "value": 71.4},
      {"measurement": "cell viability (kinase inhibitor library screening)", "setting": "[1]; 1μΜ, in %", "value": 86.1},
      {"measurement": "cell viability (kinase inhibitor library screening)", "setting": "[1]; 10μΜ, in %", "value": 50.0},
      {"measurement": "cell viability (kinase inhibitor library screening)", "setting": "[2]; 1μΜ, in %", "value": 102.9},
      {"measurement": "cell viability (kinase inhibitor library screening)", "setting": "[2]; 10μΜ, in %", "value": 48.7},
      {"measurement": "cell viability (kinase inhibitor library screening)", "setting": "A375 cells (parental); 1μΜ, in %", "value": 104.7},
      {"measurement": "cell viability (kinase inhibitor library screening)", "setting": "A375 cells (parental); 10μΜ, in %", "value": 58.1},
      {"measurement": "cell viability (kinase inhibitor library screening)", "setting": "[3]; 10μΜ, in %", "value": 54.6},
      {"measurement": "cell viability (kinase inhibitor library screening)", "setting": "[4]; 1μΜ, in %", "value": 99.5},
      {"measurement": "cell viability (kinase inhibitor library screening)", "setting": "[4]; 10μΜ, in %", "value": 69.5},
      {"measurement": "cell viability (kinase inhibitor library screening)", "setting": "IGR37 cells (parental); 1μΜ, in %", "value": 103.3},
      {"measurement": "cell viability (kinase inhibitor library screening)", "setting": "IGR37 cells (parental); 10μΜ, in %", "value": 95.3},
      {"measurement": "cell viability (kinase inhibitor library screening)", "setting": "[5]; 1μΜ, in %", "value": 90.2},
      {"measurement": "cell viability (kinase inhibitor library screening)", "setting": "[5]; 10μΜ, in %", "value": 56.0},
      {"measurement": "cell viability (kinase inhibitor library screening)", "setting": "[6]; 1μΜ, in %", "value": 89.4},
      {"measurement": "cell viability (kinase inhibitor library screening)", "setting": "[6]; 10μΜ, in %", "value": 27.5}
    ]},
    {"smiles": "CN1CCN(c2ccc3nc(-c4c(N)c5c(F)cccc5[nH]c4=O)[nH]c3c2)CC1", "note": "[Dovitinib (TKI-258)]", "values": [
      {"measurement": "cell viability, 501Mel Parental, 1μΜ", "setting": "501Mel cells (parental); 1μΜ, 72 h, in %", "value": 103.1},
      {"measurement": "cell viability, 501Mel Parental, 10μΜ", "setting": "501Mel cells (parental); 10μΜ, 72 h, in %", "value": 0.6},
      {"measurement": "cell viability, 501Mel GP, 1μΜ", "setting": "[1]; 1μΜ, 72 h, in %", "value": 95.0},
      {"measurement": "cell viability, 501Mel GP, 10μΜ", "setting": "[1]; 10μΜ, 72 h, in %", "value": -0.1},
      {"measurement": "cell viability, 501Mel XP, 1μΜ", "setting": "[2]; 1μΜ, 72 h, in %", "value": 87.1},
      {"measurement": "cell viability, 501Mel XP, 10μΜ", "setting": "[2]; 10μΜ, 72 h, in %", "value": -0.0348},
      {"measurement": "cell viability, A375 Parental, 1μΜ", "setting": "A375 cells (parental); 1μΜ, 72 h, in %", "value": 102.8},
      {"measurement": "cell viability, A375 Parental, 10μΜ", "setting": "A375 cells (parental); 10μΜ, 72 h, in %", "value": 47.2},
      {"measurement": "cell viability, A375 GP, 1μΜ", "setting": "[3]; 1μΜ, 72 h, in %", "value": 93.5},
      {"measurement": "cell viability, A375 GP, 10μΜ", "setting": "[3]; 10μΜ, 72 h, in %", "value": 42.2},
      {"measurement": "cell viability, A375 XP, 1μΜ", "setting": "[4]; 1μΜ, 72 h, in %", "value": 97.7},
      {"measurement": "cell viability, A375 XP, 10μΜ", "setting": "[4]; 10μΜ, 72 h, in %", "value": 58.3},
      {"measurement": "cell viability, IGR37 Parental, 1μΜ", "setting": "IGR37 cells (parental); 1μΜ, 72 h, in %", "value": 96.1},
      {"measurement": "cell viability, IGR37 Parental, 10μΜ", "setting": "IGR37 cells (parental); 10μΜ, 72 h, in %", "value": 64.0},
      {"measurement": "cell viability, IGR37 GP, 10μΜ", "setting": "[5]; 10μΜ, 72 h", "value": 42.8, "unit": "%"},
      {"measurement": "cell viability, IGR37 GP, 1μΜ", "setting": "[5]; 1μΜ, 72 h, in %", "value": 99.9},
      {"measurement": "cell viability, IGR37 XP, 10μΜ", "setting": "[6]; 10μΜ, 72 h", "value": 22.5, "unit": "%"},
      {"measurement": "cell viability, IGR37 XP, 1μΜ", "setting": "[6]; 1μΜ, 72 h, in %", "value": 102.6}
    ]},
    {"smiles": "COCCNCc1ccc(-c2cc3nccc(Oc4ccc(NC(=S)NC(=O)Cc5ccc(F)cc5)cc4F)c3s2)nc1", "note": "[MGCD-265]", "values": [
      {"measurement": "cell viability (kinase inhibitor library screening)", "setting": "501Mel cells (parental); 1μΜ, 72 h", "value": 104.7, "unit": "%"},
      {"measurement": "cell viability (kinase inhibitor library screening)", "setting": "501Mel cells (parental); 10μΜ, 72 h", "value": 94.4, "unit": "%"},
      {"measurement": "cell viability (kinase inhibitor library screening)", "setting": "[1]; 1μΜ, 72 h", "value": 89.8, "unit": "%"},
      {"measurement": "cell viability (kinase inhibitor library screening)", "setting": "[1]; 10μΜ, 72 h", "value": 68.8, "unit": "%"},
      {"measurement": "cell viability (kinase inhibitor library screening)", "setting": "[2]; 1μΜ, 72 h", "value": 76.7, "unit": "%"},
      {"measurement": "cell viability (kinase inhibitor library screening)", "setting": "[2]; 10μΜ, 72 h", "value": 64.2, "unit": "%"},
      {"measurement": "cell viability (kinase inhibitor library screening)", "setting": "A375 cells (parental); 10μΜ, 72 h", "value": 83.0, "unit": "%"},
      {"measurement": "cell viability (kinase inhibitor library screening)", "setting": "[3]; 1μΜ, 72 h", "value": 95.5, "unit": "%"},
      {"measurement": "cell viability (kinase inhibitor library screening)", "setting": "[3]; 10μΜ, 72 h", "value": 85.6, "unit": "%"},
      {"measurement": "cell viability (kinase inhibitor library screening)", "setting": "[4]; 1μΜ, 72 h", "value": 104.8, "unit": "%"},
      {"measurement": "cell viability (kinase inhibitor library screening)", "setting": "[4]; 10μΜ, 72 h", "value": 98.2, "unit": "%"},
      {"measurement": "cell viability (kinase inhibitor library screening)", "setting": "IGR37 cells (parental); 1μΜ, 72 h", "value": 96.8, "unit": "%"},
      {"measurement": "cell viability (kinase inhibitor library screening)", "setting": "IGR37 cells (parental); 10μΜ, 72 h", "value": 92.1, "unit": "%"},
      {"measurement": "cell viability (kinase inhibitor library screening)", "setting": "[5]; 1μΜ, 72 h", "value": 91.8, "unit": "%"},
      {"measurement": "cell viability (kinase inhibitor library screening)", "setting": "[5]; 10μΜ, 72 h", "value": 78.3, "unit": "%"},
      {"measurement": "cell viability (kinase inhibitor library screening)", "setting": "[6]; 1μΜ, 72 h", "value": 91.5, "unit": "%"},
      {"measurement": "cell viability (kinase inhibitor library screening)", "setting": "[6]; 10μΜ, 72 h", "value": 50.3, "unit": "%"}
    ]},
    {"smiles": "O=C(Nc1cccc(Cl)c1)Nc1ncc(CCNc2ncnc3ccsc23)s1", "note": "[SNS-314]", "values": [
      {"measurement": "cell viability (kinase inhibitor library screening)", "setting": "501Mel cells (parental); 1μΜ, 72 h", "value": 79.7, "unit": "%"},
      {"measurement": "cell viability (kinase inhibitor library screening)", "setting": "501Mel cells (parental); 10μΜ, 72 h", "value": 75.7, "unit": "%"},
      {"measurement": "cell viability (kinase inhibitor library screening)", "setting": "[1]; 1μΜ, 72 h", "value": 79.1, "unit": "%"},
      {"measurement": "cell viability (kinase inhibitor library screening)", "setting": "[1]; 10μΜ, 72 h", "value": 58.4, "unit": "%"},
      {"measurement": "cell viability (kinase inhibitor library screening)", "setting": "[2]; 1μΜ, 72 h", "value": 72.3, "unit": "%"},
      {"measurement": "cell viability (kinase inhibitor library screening)", "setting": "[2]; 10μΜ, 72 h", "value": 46.6, "unit": "%"},
      {"measurement": "cell viability (kinase inhibitor library screening)", "setting": "A375 cells (parental); 10μΜ, 72 h", "value": 46.0, "unit": "%"},
      {"measurement": "cell viability (kinase inhibitor library screening)", "setting": "A375 cells (parental); 1μΜ, 72 h", "value": 47.7, "unit": "%"},
      {"measurement": "cell viability (kinase inhibitor library screening)", "setting": "[3]; 1μΜ, 72 h", "value": 47.1, "unit": "%"},
      {"measurement": "cell viability (kinase inhibitor library screening)", "setting": "[3]; 10μΜ, 72 h", "value": 46.9, "unit": "%"},
      {"measurement": "cell viability (kinase inhibitor library screening)", "setting": "[4]; 1μΜ, 72 h", "value": 56.7, "unit": "%"},
      {"measurement": "cell viability (kinase inhibitor library screening)", "setting": "[4]; 10μΜ, 72 h", "value": 55.3, "unit": "%"},
      {"measurement": "cell viability (kinase inhibitor library screening)", "setting": "IGR37 cells (parental); 1μΜ, 72 h", "value": 81.9, "unit": "%"},
      {"measurement": "cell viability (kinase inhibitor library screening)", "setting": "IGR37 cells (parental); 10μΜ, 72 h", "value": 57.7, "unit": "%"},
      {"measurement": "cell viability (kinase inhibitor library screening)", "setting": "[5]; 1μΜ, 72 h", "value": 93.6, "unit": "%"},
      {"measurement": "cell viability (kinase inhibitor library screening)", "setting": "[5]; 10μΜ, 72 h", "value": 58.8, "unit": "%"},
      {"measurement": "cell viability (kinase inhibitor library screening)", "setting": "[6]; 1μΜ, 72 h", "value": 88.3, "unit": "%"},
      {"measurement": "cell viability (kinase inhibitor library screening)", "setting": "[6]; 10μΜ, 72 h", "value": 20.8, "unit": "%"}
    ]}
  ]
}
